The target in one assay is T1, BRAF V600E (Homo sapiens, UniProt P15056+Q96SW2, V600E).
T1 construct: knock-in of the HiBiT tag to the endogenous BRAF V600E locus; host or cells: A375.10 (A375 clonal line, CRISPR HiBiT knock-in at the endogenous BRAF V600E locus)
Put plainly: BRAF V600E HiBiT Degradation Assay. In kind it is cell-based. A digest of the protocol: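 Endogenous HiBiT knock-in on BRAF V600E in A375 cells (clone A375.10); 11-point half-log series, top 10 μM, 2, 6 or 24 h at 37° C. Lytic HiBiT luminescence, background-subtracted, normalized to DMSO; 4-parameter fit gives DC50, Emax (residual protein) and IP (inflection point).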
In general terms: With HiBiT, luminescence reflects the tagged protein that the partner subunit can reach.

For a further assay, the system named is A375-NRAS^Q61K cells. Nature of the assay: CTGlo Cell Viability Assay, A375-NRAS^Q61K (A375.11) cells, 96 hours. In kind it is cell-based, human. The following applies: A375.11 (A375-NRAS^Q61K) cells; for Emax: lowest % viability achieved. Put shortly:
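A375 cells carrying BRAF V600E and NRAS Q61K were seeded at 250 cells/well with a 10-point half-log dose series (max 10 μM final). After 96 h at 37 °C, viability was read as ATP luminescence (CellTiter-Glo), background-subtracted and normalized to DMSO (100%). GI50 from 4-parameter fit; Emax is the lowest % viability.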

The mark [1] stands for this setting: A375.10 cells, BRAF V600E, 2 hours, inflection point, read-out: HiBiT-Degradation A375.10 BRAF 2 hours IP.
The mark [2] stands for this setting: A375.10 cells, BRAF V600E, 2 hours, read-out: HiBiT-Degradation A375.10 BRAF 2 hours DC50.
[3] abbreviates: A375.10 cells, BRAF V600E, 2 hours, residual protein remaining, read-out: HiBiT-Degradation A375.10 BRAF 2 hours Emax.
Setting [4] is: read-out: HiBiT-Degradation A375.10 BRAF 2 hours Emax, A375.10 cells, BRAF V600E, 2 hours, residual protein remaining.
Where [5] appears, read: A375.10 cells, HiBiT, BRAF V600E, 24 hours, read-out: HiBiT-Degradation A375.10 BRAF 24 hours DC50.
Setting [6] is: A375.10 cells, HiBiT, BRAF V600E, 24 hours, read-out: HiBiT-Degradation A375.10 BRAF 24 hours Emax.
The mark [7] stands for this setting: A375.10 cells, HiBiT, BRAF V600E, 24 hours, read-out: HiBiT-Degradation A375.10 BRAF 24 hours IP.

Experimental findings from patent US20260297060A1, “COMPOUNDS FOR THE DEGRADATION OF MUTANT BRAF” (C4 THERAPEUTICS, INC., priority 2023, published 2026) are described below.

Where two headings read alike, the source gives them in different places. Some results are limits rather than exact numbers.

In general, GI50 refers to the concentration giving 50% growth inhibition. The low end stands for greater sensitivity of the cells, the high end for lower sensitivity of the cells.

T1 sequence (P15056 whole entry V600E): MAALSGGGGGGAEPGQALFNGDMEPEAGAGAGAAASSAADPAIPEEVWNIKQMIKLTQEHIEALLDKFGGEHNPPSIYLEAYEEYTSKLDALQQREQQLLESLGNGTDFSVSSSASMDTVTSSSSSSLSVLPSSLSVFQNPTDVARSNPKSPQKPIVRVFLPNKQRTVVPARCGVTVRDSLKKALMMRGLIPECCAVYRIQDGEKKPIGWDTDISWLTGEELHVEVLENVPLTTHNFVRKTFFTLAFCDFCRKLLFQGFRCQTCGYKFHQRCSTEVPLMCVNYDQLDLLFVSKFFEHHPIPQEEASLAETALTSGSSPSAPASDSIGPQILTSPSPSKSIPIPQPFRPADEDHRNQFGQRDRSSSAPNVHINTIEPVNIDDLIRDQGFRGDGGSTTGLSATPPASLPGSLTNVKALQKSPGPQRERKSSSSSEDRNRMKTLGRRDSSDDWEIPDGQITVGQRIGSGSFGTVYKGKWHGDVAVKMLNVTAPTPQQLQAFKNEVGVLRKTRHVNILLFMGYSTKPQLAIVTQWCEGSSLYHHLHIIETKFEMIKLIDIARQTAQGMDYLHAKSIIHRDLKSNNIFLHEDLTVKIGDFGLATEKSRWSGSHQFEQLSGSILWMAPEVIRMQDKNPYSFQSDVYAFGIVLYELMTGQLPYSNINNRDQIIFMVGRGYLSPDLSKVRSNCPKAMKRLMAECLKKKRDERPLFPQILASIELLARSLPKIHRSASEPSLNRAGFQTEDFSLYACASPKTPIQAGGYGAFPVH
T1 sequence (Q96SW2 whole entry): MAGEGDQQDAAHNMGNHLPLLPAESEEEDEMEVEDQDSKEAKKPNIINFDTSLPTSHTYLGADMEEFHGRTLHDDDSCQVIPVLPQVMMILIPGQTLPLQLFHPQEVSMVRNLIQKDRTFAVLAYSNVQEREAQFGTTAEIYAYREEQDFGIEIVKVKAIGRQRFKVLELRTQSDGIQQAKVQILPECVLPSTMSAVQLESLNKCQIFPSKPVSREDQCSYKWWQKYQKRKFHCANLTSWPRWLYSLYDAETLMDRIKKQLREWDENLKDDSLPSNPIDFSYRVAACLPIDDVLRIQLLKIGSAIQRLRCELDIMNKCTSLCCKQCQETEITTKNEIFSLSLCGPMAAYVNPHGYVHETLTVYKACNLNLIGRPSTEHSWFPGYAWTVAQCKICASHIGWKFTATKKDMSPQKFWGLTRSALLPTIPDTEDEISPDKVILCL
T1 sequence (Q16531 whole entry partner): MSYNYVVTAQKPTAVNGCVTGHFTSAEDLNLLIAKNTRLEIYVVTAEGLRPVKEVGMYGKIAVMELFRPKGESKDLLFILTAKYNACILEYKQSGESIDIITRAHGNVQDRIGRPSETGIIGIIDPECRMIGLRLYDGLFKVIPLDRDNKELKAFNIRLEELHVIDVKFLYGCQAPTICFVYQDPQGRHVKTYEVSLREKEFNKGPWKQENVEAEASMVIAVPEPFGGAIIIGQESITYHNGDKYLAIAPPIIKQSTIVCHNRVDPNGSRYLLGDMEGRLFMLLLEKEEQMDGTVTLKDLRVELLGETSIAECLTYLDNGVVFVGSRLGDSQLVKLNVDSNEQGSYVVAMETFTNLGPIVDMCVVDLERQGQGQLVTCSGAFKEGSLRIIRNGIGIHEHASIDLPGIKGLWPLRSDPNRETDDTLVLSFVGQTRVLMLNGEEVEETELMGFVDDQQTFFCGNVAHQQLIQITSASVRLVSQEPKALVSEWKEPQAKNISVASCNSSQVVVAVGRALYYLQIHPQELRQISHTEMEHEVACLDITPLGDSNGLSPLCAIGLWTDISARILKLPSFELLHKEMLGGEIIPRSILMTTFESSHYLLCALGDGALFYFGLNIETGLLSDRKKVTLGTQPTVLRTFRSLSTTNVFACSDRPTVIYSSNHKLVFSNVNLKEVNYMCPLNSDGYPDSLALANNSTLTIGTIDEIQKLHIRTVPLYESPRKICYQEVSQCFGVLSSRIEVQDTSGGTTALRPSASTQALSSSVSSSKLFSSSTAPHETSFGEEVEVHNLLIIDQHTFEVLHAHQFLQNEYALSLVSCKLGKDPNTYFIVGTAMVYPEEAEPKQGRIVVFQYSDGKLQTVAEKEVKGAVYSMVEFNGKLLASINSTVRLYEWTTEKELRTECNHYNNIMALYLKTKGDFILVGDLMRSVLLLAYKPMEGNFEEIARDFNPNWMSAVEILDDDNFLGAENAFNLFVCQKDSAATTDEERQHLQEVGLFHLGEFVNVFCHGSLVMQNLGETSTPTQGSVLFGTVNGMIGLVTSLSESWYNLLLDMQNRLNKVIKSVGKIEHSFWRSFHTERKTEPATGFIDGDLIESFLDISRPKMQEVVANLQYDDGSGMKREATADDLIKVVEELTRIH

For `CCN(C)S(=O)(=O)Nc1ccc(F)c(Oc2ccc3ncn(C4CC5(CCC(N6CC[C@@H](c7cc8c(cc7F)c(N7CCC(=O)NC7=O)nn8C)C(F)(F)C6)CC5)C4)c(=O)c3c2)c1C#N` (stereo partly drawn) [Compound 225, 6-[2-cyano-3-[[ethyl(methyl)sulfamoyl]amino]-6-fluoro-phenoxy]-3-[7-[(4S)-4-[3-(2,4-dioxohexahydropyrimidin-1-yl)-5-fluoro-1-methyl-indazol-6-yl]-3,3-difluoro-1-piperidyl]spiro[3.5]nonan-2-yl]-4-oxo-quinazoline], the DC50 at BRAF V600E (setting [1]) and at BRAF V600E (setting [2]) was below 1 µM each time. Further, the Emax at BRAF V600E (setting [3]) is below 50%; with A375-NRAS^Q61K cells (Homo sapiens, 96 h) it was below 50%. This compound displayed a GI50 in the assay with A375-NRAS^Q61K cells (Homo sapiens, 96 h) below 1 µM.
As for `CCN(C)S(=O)(=O)Nc1ccc(F)c(Oc2ccc3ncc(OCC4(F)CCN(C5CCC(c6cc7c(cc6F)c(N6CCC(=O)NC6=O)nn7C)CC5)CC4)nc3c2)c1C#N` (single isomer, unassigned) [Compound 228, 7-[2-cyano-3-[[ethyl(methyl)sulfamoyl]amino]-6-fluoro-phenoxy]-2-[[1-[4-[3-(2,4-dioxohexahydropyrimidin-1-yl)-5-fluoro-1-methyl-indazol-6-yl]cyclohexyl]-4-fluoro-4-piperidyl]methoxy]quinoxaline], the DC50 was below 1 µM on BRAF V600E (setting [1]) and 1 to 10 µM on BRAF V600E (setting [2]). In addition, the Emax lay in the range of 50 to 90% on BRAF V600E (setting [3]) and 50 to 90% in the assay with A375-NRAS^Q61K cells (Homo sapiens, 96 h). In addition, the GI50 in the assay on A375-NRAS^Q61K cells (Homo sapiens, 96 h) fell in the range of 1 to 10 µM.
Consider `CO[C@H]1CCN(S(=O)(=O)Nc2ccc(F)c(Oc3ccc4ncn(C5CC6(CCN(C7CC8(C7)CN(c7cc9c(cc7F)c(N7CCC(=O)NC7=O)nn9C)C8)CC6)C5)c(=O)c4c3)c2C#N)C1` (stereo partly drawn) [Compound 272, (3S)-N-[2-cyano-3-[3-[7-[2-[3-(2,4-dioxohexahydropyrimidin-1-yl)-5-fluoro-1-methyl-indazol-6-yl]-2-azaspiro[3.3]heptan-6-yl]-7-azaspiro[3.5]nonan-2-yl]-4-oxo-quinazolin-6-yl]oxy-4-fluoro-phenyl]-3-methoxy-pyrrolidine-1-sulfonamide], for which the DC50 at BRAF V600E (read-out: HiBiT-Degradation A375.10 BRAF 2 hours DC50, A375.10 cells, BRAF V600E, 2 hours) was below 1 µM; on BRAF V600E (read-out: HiBiT-Degradation A375.10 BRAF 2 hours IP, A375.10 cells, BRAF V600E, 2 hours, inflection point), below 1 µM. Also, the Emax was below 50% at BRAF V600E (setting [4]) and 50 to 90% with A375-NRAS^Q61K cells (Homo sapiens, 96 h). The 50% growth inhibitory concentration (GI50) in the assay with A375-NRAS^Q61K cells (Homo sapiens, 96 h) is above 10 µM.
With `CCN(C)S(=O)(=O)Nc1ccc(F)c(Oc2ccc3ncn([C@H]4COC5(CCC(N6CC7(CN(c8ccc(NC9CCC(=O)NC9=O)cc8F)C7)C6)CC5)C4)c(=O)c3c2)c1C#N` (single isomer, unassigned) [Compound 191], the DC50 on BRAF V600E (setting [1]) and on BRAF V600E (setting [2]) was below 1 µM in each case. For the same compound, the Emax on BRAF V600E (setting [4]) was below 50%; in the assay on A375-NRAS^Q61K cells (Homo sapiens, 96 h), below 50%. This compound also yielded a GI50 in the assay on A375-NRAS^Q61K cells below 1 µM.
In the case of `CCN(C)S(=O)(=O)Nc1ccc(F)c(Oc2ccc3ncn(C4CC5(CCN(C6CC7(CCN(c8cc9c(cc8F)c(N8CCC(=O)NC8=O)nn9C)CC7)C6)C5)C4)c(=O)c3c2)c1C#N` (stereo not drawn) [Compound 266, 6-[2-cyano-3-[[ethyl(methyl)sulfamoyl]amino]-6-fluoro-phenoxy]-3-[6-[7-[3-(2,4-dioxohexahydropyrimidin-1-yl)-5-fluoro-1-methyl-indazol-6-yl]-7-azaspiro[3.5]nonan-2-yl]-6-azaspiro[3.4]octan-2-yl]-4-oxo-quinazoline], the DC50 at BRAF V600E (setting [1]) and at BRAF V600E (setting [2]) was below 1 µM each time. In addition, the Emax is 50 to 90% on BRAF V600E (setting [3]) and 50 to 90% with A375-NRAS^Q61K cells (Homo sapiens, 96 h). In the assay on A375-NRAS^Q61K cells (Homo sapiens, 96 h), the GI50 is above 10 µM.
Take `CCN(C)S(=O)(=O)Nc1ccc(F)c(Oc2ccc3ncn(C4CC5(C4)CN(C4CC6(C4)CN(c4cc7c(cc4F)c(N4CCC(=O)NC4=O)nn7C)C6)C5)c(=O)c3c2)c1C#N` (stereo not drawn) [Compound 305, 6-[2-cyano-3-[[ethyl(methyl)sulfamoyl]amino]-6-fluoro-phenoxy]-3-[2-[2-[3-(2,4-dioxohexahydropyrimidin-1-yl)-5-fluoro-1-methyl-indazol-6-yl]-2-azaspiro[3.3]heptan-6-yl]-2-azaspiro[3.3]heptan-6-yl]-4-oxo-quinazoline]: the DC50 on BRAF V600E (setting [1]), at BRAF V600E (setting [2]), at BRAF V600E (setting [5]) and at BRAF V600E (setting [7]) was below 1 µM throughout. The Emax on BRAF V600E (setting [3]) is below 50%; at BRAF V600E (setting [6]), below 50%; with A375-NRAS^Q61K cells (Homo sapiens, 96 h), 50 to 90%. The compound also yielded a GI50 in the assay with A375-NRAS^Q61K cells (Homo sapiens, 96 h) below 1 µM.
With `CCN(C)S(=O)(=O)Nc1ccc(F)c(Oc2ccc3ncn(CCC4CCN(C5CCC(c6ccc(NC7CCC(=O)NC7=O)cc6F)CC5)CC4)c(=O)c3c2)c1C#N` (single isomer, unassigned) [Compound 153, 6-[2-cyano-3-[[ethyl(methyl)sulfamoyl]amino]-6-fluoro-phenoxy]-3-[2-[1-[4-[4-[(2,6-dioxo-3-piperidyl)amino]-2-fluoro-phenyl]cyclohexyl]-4-piperidyl]ethyl]-4-oxo-quinazoline], the DC50 at BRAF V600E (setting [1]) is below 1 µM; on BRAF V600E (setting [2]), 1 to 10 µM. Besides, the Emax lay in the range of 50 to 90% at BRAF V600E (setting [3]) and 50 to 90% in the assay on A375-NRAS^Q61K cells (Homo sapiens, 96 h). The compound also returned a GI50 in the assay with A375-NRAS^Q61K cells (Homo sapiens, 96 h) above 10 µM.
For `CCN(C)S(=O)(=O)Nc1ccc(F)c(Oc2ccc3ncn([C@H]4COC5(CCN(CC6(O)CCN(c7cc8c(cc7F)c(N7CCC(=O)NC7=O)nn8C)CC6)CC5)C4)c(=O)c3c2)c1C#N` [Compound 230, (3R)-3-[6-[2-cyano-3-[[ethyl(methyl)sulfamoyl]amino]-6-fluoro-phenoxy]-4-oxo-quinazolin-3-yl]-8-[[1-[3-(2,4-dioxohexahydropyrimidin-1-yl)-5-fluoro-1-methyl-indazol-6-yl]-4-hydroxy-4-piperidyl]methyl]-1-oxa-8-azaspiro[4.5]decane], the DC50 on BRAF V600E (setting [1]), on BRAF V600E (setting [2]), on BRAF V600E (setting [5]) and at BRAF V600E (setting [7]) was below 1 µM each time. Besides, the Emax at BRAF V600E (setting [3]) is below 50%; on BRAF V600E (setting [6]) it was below 50%; in the assay with A375-NRAS^Q61K cells (Homo sapiens, 96 h), 50 to 90%. This compound also gave a GI50 in the assay on A375-NRAS^Q61K cells (Homo sapiens, 96 h) below 1 µM.
For `CCN(C)S(=O)(=O)Nc1ccc(F)c(Oc2ccc3ncn([C@H]4COC5(C4)CN(C4CCC(c6cc7c(cc6F)c(N6CCC(=O)NC6=O)nn7C)CC4)C5)c(=O)c3c2)c1C#N` (single isomer, unassigned) [Compound 235], the values for the DC50 on BRAF V600E (setting [1]) and on BRAF V600E (setting [2]) were below 1 µM and 1 to 10 µM, respectively. Moreover, the Emax was below 50% at BRAF V600E (setting [3]) and 50 to 90% in the assay on A375-NRAS^Q61K cells (Homo sapiens, 96 h). This compound also had a GI50 in the assay on A375-NRAS^Q61K cells above 10 µM.
On to `CCN(C)S(=O)(=O)Nc1ccc(F)c(Oc2ccc3ncn(C4CC5(CCN(C6CCC(c7cc8c(cc7F)c(N7CCC(=O)NC7=O)nn8C)CC6)C5)C4)c(=O)c3c2)c1C#N` (single isomer, unassigned) [Compound 205, 6-[2-cyano-3-[[ethyl(methyl)sulfamoyl]amino]-6-fluoro-phenoxy]-3-[6-[4-[3-(2,4-dioxohexahydropyrimidin-1-yl)-5-fluoro-1-methyl-indazol-6-yl]cyclohexyl]-6-azaspiro[3.4]octan-2-yl]-4-oxo-quinazoline], for which the figures for the DC50 at BRAF V600E (setting [1]) and on BRAF V600E (setting [2]) were below 1 µM and above 10 µM, respectively. In addition, the “HiBiT-Degradation A375.10 BRAF 2 hours Emax” value at BRAF V600E (A375.10 cells, BRAF V600E, 2 hours, residual protein remaining) is “** (<90% and >50%)”. The GI50 with A375-NRAS^Q61K cells was above 10 µM. The compound also gave an Emax in the assay on A375-NRAS^Q61K cells (Homo sapiens, 96 h) of 50 to 90%.
As for `CCN(C)S(=O)(=O)Nc1ccc(F)c(Oc2ccc3ncn(CC4CCN(C5CCN(c6cc7c(cc6F)c(N6CCC(=O)NC6=O)nn7C)CC5)CC4)c(=O)c3c2)c1C#N` [Compound 264, 6-[2-cyano-3-[[ethyl(methyl)sulfamoyl]amino]-6-fluoro-phenoxy]-3-[[1-[1-[3-(2,4-dioxohexahydropyrimidin-1-yl)-5-fluoro-1-methyl-indazol-6-yl]-4-piperidyl]-4-piperidyl]methyl]-4-oxo-quinazoline], the DC50 on BRAF V600E (setting [1]) and on BRAF V600E (setting [2]) was below 1 µM each time. Besides, the Emax on BRAF V600E (setting [3]) is below 50%; in the assay on A375-NRAS^Q61K cells (Homo sapiens, 96 h) it was 50 to 90%. In the assay with A375-NRAS^Q61K cells (Homo sapiens, 96 h), this compound yielded a GI50 of 1 to 10 µM.
Consider `CO[C@@H]1CCN(S(=O)(=O)Nc2ccc(F)c(Oc3ccc4ncc(C5CC6(CCN(C7CCC(c8cc9c(cc8F)c(N8CCC(=O)NC8=O)nn9C)CC7)CC6)C5)nc4c3)c2C#N)C1` (single isomer, unassigned) [Compound 284], for which the DC50 on BRAF V600E (setting [1]) and on BRAF V600E (setting [2]) was below 1 µM throughout. Moreover, the Emax was below 50% on BRAF V600E (setting [3]) and below 50% with A375-NRAS^Q61K cells (Homo sapiens, 96 h). Besides, the GI50 in the assay on A375-NRAS^Q61K cells (Homo sapiens, 96 h) is below 1 µM.
